In patent US20050148656A1, “Carboxylic derivates” (priority 2003, published 2005):

Assays:
[1] = target: T1, human PPARα (Homo sapiens, UniProt Q07869); test: Luciferase reporter assay in transiently transfected cells, PPARα activation; format: cell-based; settings: 50% of maximal activation obtained by reference compound (ETYA); about 24 hours exposure
T1 construct: expressed in transfected cells
T1 sequence (Q07869 1-468): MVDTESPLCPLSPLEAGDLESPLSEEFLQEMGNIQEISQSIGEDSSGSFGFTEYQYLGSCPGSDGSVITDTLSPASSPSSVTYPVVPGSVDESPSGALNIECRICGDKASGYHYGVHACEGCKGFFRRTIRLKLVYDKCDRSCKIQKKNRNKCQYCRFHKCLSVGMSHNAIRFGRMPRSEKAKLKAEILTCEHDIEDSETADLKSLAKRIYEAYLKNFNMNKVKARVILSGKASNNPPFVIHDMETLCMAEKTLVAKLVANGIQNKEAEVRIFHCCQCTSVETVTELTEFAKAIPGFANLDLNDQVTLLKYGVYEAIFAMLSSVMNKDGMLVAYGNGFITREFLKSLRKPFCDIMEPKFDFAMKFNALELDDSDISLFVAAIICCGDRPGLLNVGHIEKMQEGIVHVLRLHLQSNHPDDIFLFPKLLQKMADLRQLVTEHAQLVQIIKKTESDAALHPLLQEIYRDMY
Protocol: (§1) The compounds of the invention were tested in the assays described in WO 03/051821.
(§2) Stock solutions of compounds in DMSO were diluted in appropriate concentration ranges in master plates. From master plates, compounds were diluted in culture media to obtain test compound solutions for final doses.
(§3) After adjustment of the amount of cell medium to 75 μl in each well, 50 μl test compound solution was added. Transiently transfected cells were exposed to compounds for about 24 hours before the luciferase detection assay was performed. For luciferase assays, 100 μl of assay reagent was added manually to each well and plates were left for approximately 20 minutes in order to allow lysis of the cells. After lysis, luciferase activity was measured in a 1420 Multiwell counter, Victor, from Wallach.
(§4) The TZD pioglitazone was used as reference substance for activation of both human and murine PPARγ. 5,8,11,14-Eicosatetrayonic acid (ETYA) was used as reference substance for human PPARα.
(§5) For calculation of EC50 values, a concentration-effect curve was established. Values used were derived from the average of two or three independent measurements (after subtraction of the background average value) and were expressed as the percentage of the maximal activation obtained by the reference compound. Values were plotted against the logarithm of the test compound concentration. EC50 values were estimated by linear […] between the data points and calculating the concentration required to achieve 50% of the maximal activation obtained by the reference compound.

[2] = tested on: PPARγ; test: Luciferase reporter assay in transiently transfected cells, PPARγ activation; format: cell-based, human and murine
Protocol: as §1, §2, §3, §4, §5

EC50 [1]	SMILES	ratio EC50 (PPARγ):EC50 (PPARα) [2]
3 nM	CCO[C@@H](Cc1ccc(OCC(=O)N(Cc2ccc(Cl)cc2)Cc2ccc(Cl)cc2)cc1)C(=O)O [Example 12, (2S)-3-(4-{2-[bis(4-Chlorobenzyl)amino]-2-oxoethoxy}phenyl)-2-ethoxypropanoic acid]	>1000
3 nM	CCO[C@@H](Cc1ccc(OCC(=O)N(Cc2ccc(C(F)(F)F)cc2)Cc2ccc(C(F)(F)F)cc2)cc1)C(=O)O [Example 15, (2S)-3-[4-(2-{bis[4-(Trifluoromethyl)benzyl]amino}-2-oxoethoxy)phenyl]-2-ethoxypropanoic acid]	>900
8 nM	CCO[C@@H](Cc1ccc(OCC(=O)N(Cc2ccc(Cl)cc2)Cc2ccc(C(C)(C)C)cc2)cc1)C(=O)O [Example 13, (2S)-3-(4-{2-[(4-tert-Butylbenzyl)(4-chlorobenzyl)amino]-2-oxoethoxy}phenyl)-2-ethoxypropanoic acid]	>400
